According to publication PMC5602898, “Ornithine uptake and the modulation of drug sensitivity in Trypanosoma brucei” (FASEB journal : official publication of the Federation of …, 2017):

Legend:
TbAAT2-4 = molecular target: T1, TbAAT2-4 (Trypanosoma brucei, UniProt Q57Y06); assay: competition of radiolabelled histidine uptake in S. cerevisiae […]Δ8AA; assay type: cell-based; conditions: 200 μM histidine, 2 mM competitor, pH 5.5, 30 °C
T1 construct: gene Tb04.1D20.560; full-length ORF amplified from T. brucei 427 genomic DNA, vector pDR197, expressed in Saccharomyces cerevisiae 22Δ8AA; no tag told
T1 sequence (Q57Y06 entry or part of it): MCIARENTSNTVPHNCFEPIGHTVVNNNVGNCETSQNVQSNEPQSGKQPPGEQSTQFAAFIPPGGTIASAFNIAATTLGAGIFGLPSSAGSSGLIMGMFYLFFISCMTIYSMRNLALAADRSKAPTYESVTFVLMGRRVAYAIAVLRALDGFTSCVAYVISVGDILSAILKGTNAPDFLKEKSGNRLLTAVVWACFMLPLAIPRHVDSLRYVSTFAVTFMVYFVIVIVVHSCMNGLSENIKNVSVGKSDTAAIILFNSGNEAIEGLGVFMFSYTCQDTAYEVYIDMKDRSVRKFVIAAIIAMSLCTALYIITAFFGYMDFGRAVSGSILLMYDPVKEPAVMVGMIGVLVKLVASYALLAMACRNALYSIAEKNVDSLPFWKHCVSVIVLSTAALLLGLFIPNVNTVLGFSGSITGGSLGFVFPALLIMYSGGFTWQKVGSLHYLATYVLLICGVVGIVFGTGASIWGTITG

[1] = tested on: N[C@@H](Cc1c[nH]cn1)C(=O)O; assay: cells, lysate or membranes; conditions: L-[3H]histidine, labelled compound, 50 mM potassium phosphate pH 5.5, 0.6 M sorbitol, 100 mM glucose preincubation, 30 °C, empty-vector uptake subtracted
[2] = substrate: NCCC[C@H](N)C(=O)O; assay: cells, lysate or membranes; conditions: L-[3H]ornithine, labelled compound, 50 mM potassium phosphate pH 5.5, 0.6 M sorbitol, 100 mM glucose preincubation, 30 °C, empty-vector uptake subtracted

For NCCCC[C@H](N)C(=O)O [lysine], the “% of control uptake at 2 mM” value (TbAAT2-4; also supports yeast growth on lysine) was “TbAAT2-4-mediated histidine uptake was inhibited by several amino acids, including arginine and lysine”.

“TbAAT2-4 (Trypanosoma brucei brucei TREU927)” showed a Km [1] of 20.5 ± 8.6 µM.

For N=C(N)NCCC[C@H](N)C(=O)O [arginine], the “% of control uptake at 2 mM” value (TbAAT2-4) was “TbAAT2-4-mediated histidine uptake was inhibited by several amino acids, including arginine and lysine”.

B1: TbAAT10-1 (Trypanosoma brucei brucei TREU927) (protein)
chain: MSNVRGNITPAVVYASNEPNALNASDDGIKNYEAYEDIQSNNSESKFAPFSKLSKKIAAVIPPGGIFASAFNIAATTLGAGIFGLPSTANGSGLVMGILYLVIINCMTIYSMYNLALAAERSKALTYEGVTFVVLGRWAAYAIAAVRAFDGFTSCIAYVISVGDIFSSILKGTDAPEFWKGNTGNRLLTALLWLCCMLPLVIPRHVDSLRHVSTCAVTFMVYFVIVIVVHSCLNGLPENIKDVSVGKSDTAAIILFNSGNAAVEGLGVFMFSYTCQDTAYEIYMDMKDRSVRKFVISSAIAMCMCTVLYILTVFFGYMDFGRDVTGSILLMYDPVNEPAVMVGMIGVLVKLIASYALLAMACRNALYSIAGKNADVLPFWKHCASVVTLSVAALVLGLFIPKVNTVLGFAGSITGGSLGYIFPSLLLMYSGGFTWQRVGPFHYLVAYGLLISGVVGVVFGTGATIWGTIVG
B1 was tested, and the Km [2] was 4.3 ± 1.5 µM.
